Data set [1] has as its system Plasmodium falciparum. Briefly: Antiplasmodial activity against Plasmodium falciparum 3D7 infected in human red blood cells assessed as parasite growth inhibition incubated for 72 hrs by SYBR Green I staining based analysis. The class given is functional, organism-based, Red blood cell. The settings on record: 3D7, Erythrocyte.
Data set [2] deals with Plasmodium falciparum. The experiment in a line: Antimalarial activity against Plasmodium falciparum 3D7 assessed as parasite growth inhibition incubated for 42 hrs by [3H]-hypoxanthine incorporation assay. The class given is functional, organism-based.
Data set [3] can be described thus: Cytotoxicity against human PC-3 cells incubated for 72 hrs by MTT assay. Type of data set: toxicity, cell-based. A general note: Tetrazolium assays rely on reduction of a dye to a coloured formazan, in cell work by metabolically active cells.
Data set [4] concerns Plasmodium falciparum. The experiment in a line: Antiplasmodial activity against CQ-resistant Plasmodium falciparum K1 infected in human O+ RBCs assessed as parasite growth inhibition incubated for 72 hrs by ELISA. The class given is functional, organism-based. The settings on record: K1, 72 h. For orientation: ELISA stands for enzyme-linked immunosorbent assay.

Broadly, the IC50 is the concentration needed to halve the response being measured. Take `O=C(N/N=C/c1cn(-c2ccccc2)nn1)c1ccncc1`: the IC50 in data set [1] came to 2.8 µM. Same read-out and setting: with `O=C(N/N=C/c1cn(-c2ccc(Cl)cc2)nn1)c1ccncc1` the figure was 2.8 µM. `COc1ccc(-n2cc(/C=N/NC(=O)c3ccncc3)nn2)cc1`: in data set [1], the IC50 was determined as 2.8 µM. For the compound `COc1ccc(-n2cc(COC(=O)c3ccccc3)nn2)cc1`, in data set [1], the half-inhibitory concentration (IC50) amounted to 2.8 µM.

Regarding `CCOCc1cn(-c2ccc(Cl)cc2)nn1`, in data set [1], the IC50 was found to be 2.8 µM. For the compound `O=C(OCc1cnn(-c2ccccc2)n1)c1ccccc1`, the IC50 in data set [1] was 2.8 µM. For `O=C(OCc1cn(-c2ccccc2)nn1)c1ccccc1`, the IC50 in data set [1] turned out to be 2.8 µM.

`CCCOCc1cn(-c2cc(Cl)ccc2Cl)nn1`: the IC50 in data set [1] was found to be 2.8 µM. `CCCOCc1cn(-c2cc(Cl)cc(Cl)c2)nn1`: in data set [1], the IC50 amounted to 2.8 µM. Still for that read-out and setting: then `CCOCc1cn(-c2cc(Cl)cc(Cl)c2)nn1`, with 2.8 µM. For orientation: CC50 means the concentration that lowers cell viability or growth by half. Higher therefore signals better tolerance by the cells. For the compound `COc1ccc(NS(=O)(=O)c2ccc(-n3cc(COc4c(OC)ccc5cc6[n+](cc45)CCc4cc5c(cc4-6)OCO5)nn3)cc2)cc1.[Cl-]`, the IC50 in data set [2] is 0.5 µg/mL. Further, in data set [3], the CC50 at 72 h was over 200 µg/mL. In the same order, the values of `COc1ccc2cc3[n+](cc2c1OCc1cn(-c2ccc(S(=O)(=O)Nc4ccc(F)cc4)cc2)nn1)CCc1cc2c(cc1-3)OCO2.[Cl-]` are 0.1 µg/mL and over 200 µg/mL. On to `COc1ccc2cc3[n+](cc2c1OCc1cn(-c2ccc(S(=O)(=O)Nc4ccc(Cl)cc4)cc2)nn1)CCc1cc2c(cc1-3)OCO2`, for which, in data set [3], the 50% cytotoxic concentration (CC50) at 72 h is over 200 µg/mL. As for `COc1ccc2cc3[n+](cc2c1OCc1cn(-c2ccc(S(N)(=O)=O)cc2)nn1)CCc1cc2c(cc1-3)OCO2.[Cl-]`, in data set [2], the IC50 was 0.1 µg/mL. The compound also came in with a CC50 at 72 h in data set [3] of over 200 µg/mL.

In the case of `COc1ccc2cc3[n+](cc2c1OCc1cn(-c2ccc(S(=O)(=O)Nc4ccccc4)cc2)nn1)CCc1cc2c(cc1-3)OCO2.[Cl-]`, in data set [2], the IC50 was found to be 0.2 µg/mL. The same compound showed a CC50 at 72 h in data set [3] of over 200 µg/mL. In the same order, the values of `COc1ccc2cc3[n+](cc2c1OCc1cn(-c2ccc(S(=O)(=O)Nc4ccc(Br)cc4)cc2)nn1)CCc1cc2c(cc1-3)OCO2.[Cl-]` are 0.1 µg/mL and over 200 µg/mL. For the compound `Clc1ccc(N/N=C/c2cnn(-c3ccccc3)n2)cc1`, the IC50 in data set [1] is 2.8 µM. In the case of `COc1ccc2cc3[n+](cc2c1OCc1cn(-c2ccc(S(=O)(=O)Nc4ccc([N+](=O)[O-])cc4)cc2)nn1)CCc1cc2c(cc1-3)OCO2.Cl`, in data set [2], the IC50 was 0.1 µg/mL. In addition, the CC50 at 72 h in data set [3] is over 200 µg/mL. As to `Clc1ccc(N/N=C/c2cn(-c3ccc(Cl)cc3)nn2)cc1`, the concentration for half-maximal inhibition (IC50) in data set [1] stood at 2.8 µM. In the case of `O=C1C(Oc2ccccc2)C(c2ccc([N+](=O)[O-])cc2)N1c1ccc(OCc2cn(Cc3ccccc3)nn2)cc1` (stereo not given), the IC50 in data set [4] turned out to be 0.85 µM. For `C=CCn1cc(COc2ccc(N3C(=O)C(Oc4ccccc4)C3c3cccc(OC)c3)cc2)nn1` (stereo not given), in data set [4], the IC50 was found to be 0.85 µM.

For the compound `Clc1cc(Cl)cc(-n2cc(/C=N/Nc3ccc(Br)cc3)nn2)c1`, the IC50 in data set [1] turned out to be 2.8 µM. Regarding `CCOC(=O)Cn1cc(COc2ccc(C3C(Oc4ccccc4)C(=O)N3c3ccc(OCc4cn(CC(=O)OCC)nn4)cc3)cc2)nn1` (stereo not given), the IC50 in data set [4] was 0.85 µM. The same measure, in the same setting: with `O=C1C(Oc2ccccc2)C(c2ccccc2)N1c1ccc(OCc2cn(Cc3ccccc3)nn2)cc1` (stereo not given) the figure was 0.85 µM; with `C=CCn1cc(COc2ccc(N3C(=O)C(Oc4ccccc4)C3c3ccccc3)cc2)nn1` (stereo not given), 0.85 µM. On to `COc1ccc(-n2cc(/C=N/Nc3ccccc3)nn2)cc1`, for which the concentration for half-maximal inhibition (IC50) in data set [1] worked out at 4.44 µM.

As for `Cc1cccc(C)c1N/N=C/c1cn(-c2cc(Cl)cc(Cl)c2)nn1`, in data set [1], the IC50 was determined as 2.8 µM. `O=C1C(Oc2ccccc2)C(c2ccccc2Cl)N1c1ccc(OCc2cn(Cc3ccccc3)nn2)cc1` (stereo not given): in data set [4], the IC50 came to 0.85 µM. `C=CCn1cc(COc2ccc(C3C(Oc4ccccc4)C(=O)N3c3ccc(C)cc3)cc2)nn1` (stereo not given): the IC50 in data set [4] was found to be 0.85 µM.

On to `COc1ccc2cc3[n+](cc2c1OCc1cn(-c2ccc(S(=O)(=O)Nc4nc(C)cc(C)n4)cc2)nn1)CCc1cc2c(cc1-3)OCO2.[Cl-]`, for which, in data set [2], the IC50 worked out at 0.1 µg/mL. This compound also gave a cytotoxic concentration (CC50) at 72 h in data set [3] of over 200 µg/mL.

For `Fc1ccc(N/N=C/c2cn(-c3ccc(Cl)cc3)nn2)cc1`, in data set [1], the IC50 stood at 8.45 µM. Regarding `O/N=C/c1cn(-c2cc(Cl)ccc2Cl)nn1`, in data set [1], the IC50 is 2.8 µM.

For `C=CCn1cc(COc2ccc(N3C(=O)C(Oc4ccccc4)C3c3ccc(C)cc3)cc2)nn1` (stereo not given), the half-inhibitory concentration (IC50) in data set [4] came out at 0.85 µM.

In the case of `COc1ccc(N2C(=O)C(Oc3ccccc3)C2c2ccc(OCc3cn(Cc4ccccc4)nn3)cc2)cc1OC` (stereo not given), the IC50 in data set [4] is 0.85 µM. Consider `CCCCCCCCCC(=O)OCc1cn(-c2cc(Cl)cc(Cl)c2)nn1`, for which the IC50 in data set [1] amounted to 2.8 µM. Same read-out and setting: with `Clc1ccc(-n2cc(/C=N/Nc3c(Cl)cccc3Cl)nn2)cc1` the figure was 2.8 µM; with `Clc1ccc(Cl)c(-n2cc(/C=N/Nc3c(Cl)cccc3Cl)nn2)c1`, 2.8 µM. As to `O=C(N/N=C/c1cnn(-c2ccccc2)n1)c1ccncc1`, in data set [1], the IC50 turned out to be 2.8 µM.

As to `Clc1cc(Cl)cc(-n2cc(/C=N/Nc3c(Cl)cccc3Cl)nn2)c1`, the IC50 in data set [1] stood at 5.56 µM. Regarding `Cc1ccc(C2C(Oc3ccccc3)C(=O)N2c2ccc(OCc3cn(Cc4ccccc4)nn3)cc2)cc1` (stereo not given), the half-inhibitory concentration (IC50) in data set [4] turned out to be 0.85 µM. As to `CCOC(=O)c1cnn(-c2ccccc2)c1`, the IC50 in data set [1] is 2.8 µM. For the compound `CCCCCCCCCC(=O)OCc1cn(-c2ccc(OC)cc2)nn1`, the IC50 in data set [1] was 2.8 µM. As to `C=CCn1cc(COc2ccc(C3C(Oc4ccccc4)C(=O)N3c3ccc(OCc4cn(CC=C)nn4)cc3)cc2)nn1` (stereo not given), the 50% inhibitory concentration (IC50) in data set [4] amounted to 0.85 µM. As for `Fc1ccc(N/N=C/c2cnn(-c3ccccc3)n2)cc1`, in data set [1], the IC50 came to 2.8 µM. For the compound `Cc1ccc(N2C(=O)C(Oc3ccccc3)C2c2ccc(OCc3cn(Cc4ccccc4)nn3)cc2)cc1` (stereo not given), the IC50 in data set [4] turned out to be 0.85 µM.

As to `CCOC(=O)Cn1cc(COc2ccc(C3C(Oc4ccc(Cl)cc4Cl)C(=O)N3c3ccc(OCc4cn(CC(=O)OCC)nn4)cc3)cc2)nn1` (stereo not given), the IC50 in data set [4] amounted to 0.85 µM. On the same count and under the same terms, then `C=CCn1cc(COc2ccc(N3C(=O)C(Oc4ccccc4)C3c3ccc([N+](=O)[O-])cc3)cc2)nn1` (stereo not given), with 0.85 µM; and `C=CCn1cc(COc2ccc(C3C(Oc4ccccc4)C(=O)N3c3ccccc3)cc2)nn1` (stereo not given), with 0.85 µM. Regarding `O=C(N/N=C/c1cn(-c2cc(Cl)cc(Cl)c2)nn1)c1ccncc1`, the IC50 in data set [1] was 6.96 µM. `C=CCn1cc(COc2ccc(C3C(Oc4ccc(Cl)cc4Cl)C(=O)N3c3ccc(OCc4cn(CC=C)nn4)cc3)cc2)nn1` (stereo not given): the IC50 in data set [4] was determined as 0.85 µM.

In the case of `C(=N\Nc1ccccc1)/c1cnn(-c2ccccc2)n1`, the 50% inhibitory concentration (IC50) in data set [1] is 2.8 µM. Regarding `CCOC(=O)Cn1cc(COc2ccc(C3C(OC)C(=O)N3c3ccc(OCc4cn(CC(=O)OCC)nn4)cc3)cc2)nn1` (stereo not given), the half-inhibitory concentration (IC50) in data set [4] is 0.85 µM. Take `O=C1C(Oc2ccccc2)C(c2ccc(OCc3cn(Cc4ccccc4)nn3)cc2)N1c1ccccc1` (stereo not given): the IC50 in data set [4] was 0.85 µM.

For the compound `CCCCOCc1cn(-c2cc(Cl)cc(Cl)c2)nn1`, the half-maximal inhibitory concentration (IC50) in data set [1] worked out at 2.8 µM. As for `O=C1C(Oc2ccccc2)C(c2ccc(OCc3cn(Cc4ccccc4)nn3)cc2)N1c1ccc(OCc2cn(Cc3ccccc3)nn2)cc1` (stereo not given), the half-maximal inhibitory concentration (IC50) in data set [4] is 0.97 µM. Regarding `COc1ccc(-n2cc(/C=N/Nc3ccc(Cl)cc3)nn2)cc1`, in data set [1], the IC50 amounted to 2.8 µM.

In the case of `O=C1C(Oc2ccc(Cl)cc2Cl)C(c2ccc(OCc3cn(Cc4ccccc4)nn3)cc2)N1c1ccc(OCc2cn(Cc3ccccc3)nn2)cc1` (stereo not given), in data set [4], the IC50 worked out at 0.97 µM. In the case of `COc1cccc(C2C(Oc3ccccc3)C(=O)N2c2ccc(OCc3cn(Cc4ccccc4)nn3)cc2)c1` (stereo not given), in data set [4], the IC50 turned out to be 0.85 µM.
